Laboratory results from US20250171400A1, “AZA-HETEROCYCLYL CARBOXAMIDE AND RELATED COMPOUNDS AND THEIR USE IN TREATING MEDICAL CONDITIONS” (X-BIOTIX THERAPEUTICS, INC., priority 2021, published 2025).
≈ marks a conversion by molar mass, not a printed value. Read-outs that look alike come from different tables or passages of the source.

How the values were obtained:
E. coli LpxC = E. coli LpxC (Escherichia coli (strain K12), UniProt P0A725); experiment: in vitro substrate deacetylation assay for inhibition of LpxC (ADDA analysis); assay type: biochemical; conditions: 5 nM E. coli LpxC, 2.5 μM substrate, 1 hour at room temperature
E. coli LpxC, sequence (P0A725 whole entry): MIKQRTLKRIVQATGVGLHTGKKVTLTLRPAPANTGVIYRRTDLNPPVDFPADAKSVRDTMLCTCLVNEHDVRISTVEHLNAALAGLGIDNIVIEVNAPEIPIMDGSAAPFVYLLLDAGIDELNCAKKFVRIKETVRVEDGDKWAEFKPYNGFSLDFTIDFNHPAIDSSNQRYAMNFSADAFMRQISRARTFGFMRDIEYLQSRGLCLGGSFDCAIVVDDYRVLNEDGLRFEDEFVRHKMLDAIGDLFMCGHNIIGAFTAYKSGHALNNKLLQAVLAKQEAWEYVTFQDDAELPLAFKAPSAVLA
Description: (§1) Exemplary compounds from the above Examples were tested for ability to inhibit LpxC activity using an in vitro substrate deacetylation assay with ADDA™ analysis. Assay procedures and results are described below.
Dilutions of test compound were pre-incubated with 5 nM P. aeruginosa or E. coli LpxC for 10 minutes at room temperature in 50 mM NaH2PO4, 500 mM sucrose, 0.2 mg/mL BSA, pH 7.2 and <1% DMSO. Reactions were initiated by the addition of 2× substrate (UDP-3-O—(R-3-hydroxydecanoyl)-N-acetylglucosamine, Carbosynth Ltd, UK, for P. aeruginosa LpxC and UDP-3-O—(R-3-hydroxymyristoyl)-N-acetylglucosamine, BOC Sciences, USA, for E. coli LpxC), in 50 mM NaH2PO4, 0.5 mg/mL BSA, pH 7.2, to a final concentration of 2.5 μM. Reactions proceeded for 1 hour at room temperature prior to quenching with and equal volume of 2% acetic acid.
For ADDA™ analysis, an aliquot of assay sample was withdrawn from each well of the 384-well plate and applied to a Hypercarb cartridge (Optimize Technologies, USA) under conditions designed to retain analytes of interest. Analytes were eluted using 1:1:2 acetone:acetonitrile:water containing 5 mM ammonium acetate then analysed by triple-quadrupole mass spectrometry. Mass spectrometry was carried out using electrospray ionization in negative ion mode. Daughter ion peaks representing detected substrate (P. aeruginosa: parent Q1 mass=775.8 amu, daughter Q3 mass=384.7 amu E. coli: parent Q1 mass=833.0 amu, daughter Q3 mass=385.0 amu, collision energy=analyte specific, dwell time=50 ms) were identified using a multiple-reaction monitoring protocol.
Total activity (0% inhibition) was obtained from reactions containing no compound, and 100% inhibition is defined as reactions in the presence of 1 μM CHIR-090 (N-[(1S,2R)-2-hydroxy-1-[(hydroxyamino)carbonyl]propyl]-4-[2-[4-(4-morpholinylmethyl)phenyl]ethynyl]-benzamide). For IC50 determinations, peak areas of the substrate and product were compared to compute the proportion of substrate reacted by the LpxC enzyme at each compound concentration. The fractional activity was converted to percentage inhibition and plotted against compound concentration in ActivityBase™ and fit using a four-parameter logistic using non-linear regression to yield the IC50 value.

[1] = tested on: wild-type P. aeruginosa PAO1; experiment: broth microdilution minimum inhibition concentration assay; assay type: cell-based; conditions: Pseudomonas aeruginosa
Description: (§2) Exemplary compounds from the above Examples were tested to determine their minimum inhibitory concentration (MIC) for exemplary strains of Eschericia and Pseudomonas bacteria using broth microdilution methods. Assay procedures and results are described below.
(§3) Broth microdilution assays were conducted according to Clinical and Laboratory Standards Institute guidelines (CLSI, M07-A11: Clinical and Laboratory Standards Institute. Methods for Dilution Antimicrobial Susceptibility Tests for Bacteria that Grow Aerobically; Approved Standard—11th Edition. Wayne, PA: CLSI, 2018.). Briefly, a 0.5 McFarland standard suspension was made from bacterial isolates on non-selective, solid media. The inocula were adjusted to give a bacterial concentration of 1×10^6 CFU/mL. Serial doubling-dilutions of each compound were prepared in cation-adjusted Mueller-Hinton broth (Sigma-Aldrich) in 96-well microdilution plates. A 50 μL aliquot of the inoculum was added to each microdilution plate and, within 15 minutes, incubated at 37° C. in air for 16-20 h. […] The test was controlled by the determination of piperacillin MIC against both E. coli ATCC 25922 and P. aeruginosa ATCC 27853 and ensuring accordance with the ranges published in CLSI supplementary document M100 (CLSI, M100Ed29: Clinical and Laboratory Standards Institute. Performance Standards for Antimicrobial Susceptibility Testing, 29th Edition. Wayne, PA: CLSI, 2018.).
(§4) Multiple enterobacteriaceae strains were tested, including E. coli ATCC 25922 and K. pneumoniae ATCC 43816. WT E. coli BW25113 was tested with an isogenic mutant deficient in acrA mediated efflux by clean deletion. WT P. aeruginosa PAO1 was tested with an isogenic mutant deficient in MexA mediated efflux by clean deletion.
(§5) Experimental results are provided in Table 4, which provides MIC values for wild-type E. coli BW25113 (“E. coli WT MIC”), an isogenic mutant deficient in acrA mediated efflux by clean deletion (“E. coli KO MIC”), wild-type P. aeruginosa PAO1 (“P. aeruginosa WT MIC”), and an isogenic mutant deficient in MexA mediated efflux by clean deletion (“[…]”).

[2] = tested on: P. aeruginosa PAO1 isogenic mutant deficient in MexA mediated efflux; experiment: as above; assay type: cell-based; conditions: Pseudomonas aeruginosa, PAO1, read-out: P. aeruginosa KO MIC
Description: as §2, §3, §4, §5

[3] = tested on: wild-type E. coli BW25113; experiment: as above; assay type: cell-based; conditions: Escherichia coli; wild-type E. coli BW25113, 37° C. 16-20 h; read-out: E. coli WT MIC
Description: as §2, §3, §4, §5

[4] = tested on: E. coli BW25113 isogenic mutant deficient in acrA mediated efflux; experiment: as above; assay type: cell-based; conditions: Escherichia coli, BW25113, read-out: E. coli KO MIC
Description: as §2, §3, §4, §5

P. aeruginosa LpxC = P. aeruginosa LpxC (Pseudomonas aeruginosa (strain ATCC 15692 / DSM 22644 / CIP 104116 / JCM 14847 / LMG 12228 / 1C / PRS 101 / PAO1), UniProt P47205); experiment: biochemical; assay type: biochemical; conditions: 5 nM P. aeruginosa LpxC, 2.5 μM substrate, 1 hour at room temperature
Description: as §1
For ADDA™ analysis, an aliquot of assay sample was withdrawn from each well of the 384-well plate and applied to a Hypercarb cartridge (Optimize Technologies, USA) under conditions designed to retain analytes of interest. Analytes were eluted using 1:1:2 acetone:acetonitrile:water containing 5 mM ammonium acetate then analysed by triple-quadrupole mass spectrometry. Mass spectrometry was carried out using electrospray ionization in negative ion mode.
For IC50 determinations, peak areas of the substrate and product were compared to compute the proportion of substrate reacted by the LpxC enzyme at each compound concentration.

[5] = wild-type P. aeruginosa PAO1, 37° C. 16-20 h, read-out: P. aeruginosa WT MIC
[6] = PAO1, read-out: P. aeruginosa WT MIC

Row | Compound | IC50 (E. coli LpxC) [nM] | MIC [1, 5] [µM] | MIC [2] [µM] | MIC [3] [µM] | MIC [4] [µM] | IC50 (P. aeruginosa LpxC) [nM] | MIC [1, 6] [µM]
1 | CC(C)C(=O)N1C[C@H](NC(=O)[C@@H]2C[C@H](C#N)CN2)C[C@@H]1C(=O)NCc1ccc(C#CC#CC2CC2)cc1 [Example 9AE] | 500 to 2500 | > 100 | 20 to 100 (≈ 9.99 to 50 µg/mL) | > 100 | > 100 | < 50 | –
2 | CC(C)C(=O)N1C[C@H](NC(=O)[C@@H]2C[C@@H](F)CN2)C[C@@H]1C(=O)NCc1ccc(C#Cc2ccc(CN3CCOCC3)cc2)cc1 [Example 9H] | 2500 to 10000 | – | > 100 | > 100 | > 100 | 100 to 1000 | > 100
3 | COC(=O)N1C[C@H](NC(=O)[C@@H]2C[C@H](F)CN2)C[C@@H]1C(=O)NCc1ccc(C#CC#CC2CC2)cc1 [Example 9R] | 500 to 2500 | > 100 | < 20 | > 100 | < 20 | < 50 | –
4 | O=C(NC[C@H]1C[C@@H](NC(=O)[C@@H]2C[C@H](F)CN2)CN1C(=O)C1CC1)c1ccc(C#Cc2ccccc2)cc1 [Example 9AX] | < 500 | > 100 | < 20 | < 20 | < 20 | < 50 | –
5 | COC(=O)N1C[C@H](NC(=O)[C@@H]2C[C@H](F)CN2)C[C@@H]1C(=O)NCc1ccc(C#Cc2ccc(CN3CCOCC3)cc2)cc1 [Example 9AG] | < 500 | > 100 | < 20 | 20 to 100 (≈ 11.8 to 59.2 µg/mL) | < 20 | < 50 | –
6 | NC1CN(C(=O)N2C[C@H](NC(=O)[C@@H]3C[C@H](F)CN3)C[C@@H]2C(=O)NCc2ccc(C#CC#CC3CC3)cc2)C1 [Example 9X] | 500 to 2500 | > 100 | < 20 | > 100 | 20 to 100 (≈ 10.4 to 52.1 µg/mL) | < 50 | –
7 | CNCCC(=O)N1C[C@H](NC(=O)[C@@H]2C[C@H](F)CN2)C[C@@H]1C(=O)NCc1ccc(C#CC#CC2CC2)cc1 [Example 9Q] | 2500 to 10000 | – | > 100 | > 100 | > 100 | 50 to 100 | > 100
8 | CC(C)C(=O)N1C[C@H](NC(=O)[C@@H]2CC(F)(F)CN2)C[C@@H]1C(=O)NCc1ccc(C#Cc2ccccc2)cc1 [Example 9C] | 500 to 2500 | – | > 100 | > 100 | 20 to 100 (≈ 10.5 to 52.3 µg/mL) | 100 to 1000 | > 100
9 | CC(C)C(=O)N1C[C@H](NC(=O)[C@@H]2C[C@@H](C#N)CN2)C[C@@H]1C(=O)NCc1ccc(C#Cc2ccc(CN3CCOCC3)cc2)cc1 [Example 9AC, (2R,4R)-4-((2S,4R)-4-Cyanopyrrolidine-2-carboxamido)-1-isobutyryl-N-(4-((4-(morpholinomethyl)phenyl)ethynyl)benzyl)pyrrolidine-2-carboxamide] | 500 to 2500 | > 100 | > 100 | > 100 | > 100 | < 50 | –
10 | O=C(N[C@@H]1C[C@H](C(=O)NCc2ccc(C#CC#CC3CC3)cc2)N(C(=O)C2CCNCC2)C1)[C@@H]1C[C@H](F)CN1 [Example 9P] | 2500 to 10000 | – | > 100 | > 100 | > 100 | 100 to 1000 | > 100
11 | O=C(N[C@@H]1C[C@H](C(=O)NCc2ccc(C#Cc3ccc(CN4CCOCC4)cc3)cc2)N(C(=O)OC2CC2)C1)[C@@H]1C[C@H](F)CN1 [Example 9AW] | < 500 | > 100 | < 20 | > 100 | < 20 | < 50 | –
12 | CC(C)C(=O)N1C[C@H](NC(=O)[C@@H]2CC(F)(F)CN2)C[C@@H]1C(=O)NCc1ccc(C#Cc2ccc(CN3CCOCC3)cc2)cc1 [Example 9F] | 500 to 2500 | – | 20 to 100 (≈ 12.4 to 62.2 µg/mL) | > 100 | 20 to 100 (≈ 12.4 to 62.2 µg/mL) | 50 to 100 | > 100
13 | CC(C)C(=O)N1C[C@H](NC(=O)[C@@H]2CC(F)(F)CN2)C[C@@H]1C(=O)NCc1ccc(C#CC#CC2CC2)cc1 [Example 9G] | 500 to 2500 | – | 20 to 100 (≈ 10.2 to 51.1 µg/mL) | > 100 | 20 to 100 (≈ 10.2 to 51.1 µg/mL) | 50 to 100 | > 100
14 | O=C(O)CN1C[C@H](NC(=O)[C@@H]2C[C@H](F)CN2)C[C@@H]1C(=O)NCc1ccc(C#CC#CC2CC2)cc1 [Example 9AN, 2-((2R,4R)-2-((4-(Cyclopropylbuta-1,3-diyn-1-yl)benzyl)carbamoyl)-4-((2S,4S)-4-fluoropyrrolidine-2-carboxamido)pyrrolidin-1-yl)acetic acid] | < 500 | – | 20 to 100 (≈ 9.61 to 48.1 µg/mL) | > 100 | > 100 | 50 to 100 | > 100
15 | C[C@@H](CN)C(=O)N1C[C@H](NC(=O)[C@@H]2C[C@H](F)CN2)C[C@@H]1C(=O)NCc1ccc(C#CC#CC2CC2)cc1 [Example 9S] | 500 to 2500 | – | > 100 | > 100 | > 100 | 50 to 100 | > 100
16 | O=C(NC[C@H]1C[C@@H](NC(=O)[C@@H]2C[C@H](F)CN2)CN1C(=O)C1CC1)c1ccc(C#Cc2ccc(CN3CCOCC3)cc2)cc1Cl [Example 6, (2S,4S)—N-((3R,5R)-5-((2-Chloro-4-((4-(morpholinomethyl)phenyl)ethynyl)benzamido)methyl)-1-(cyclopropanecarbonyl)pyrrolidin-3-yl)-4-fluoropyrrolidine-2-carboxamide] | < 500 | – | < 20 | < 20 | < 20 | 50 to 100 | > 100
17 | CC(C)C(=O)N1C[C@H](NC(=O)[C@@H]2C[C@H](F)CN2)C[C@@H]1C(=O)NCc1ccc(C#CC#CC2CC2)cc1 [Example 9B] | 500 to 2500 | – | < 20 | > 100 | 20 to 100 (≈ 9.85 to 49.3 µg/mL) | < 50 | > 100
18 | O=C(O)CCN1C[C@H](NC(=O)[C@@H]2C[C@H](F)CN2)C[C@@H]1C(=O)NCc1ccc(C#CC#CC2CC2)cc1 [Example 9AO] | 2500 to 10000 | – | > 100 | > 100 | > 100 | 100 to 1000 | > 100
